Where a name gives a salt, the structure may show the parent alone. Read-outs that look alike come from different tables or passages of the source.
Assay: Ocular tissue concentrations (aqueous humor, vitreous humor, iris, retina, choroid, cornea) after topical ocular, subcutaneous and intravitreal administration
Type: in vivo, New Zealand White rabbits
Settings: for concentration at 4 h / concentration at 0.5 h / concentration at 1 hr / concentration at 2 hr / concentration at 4 hr / concentration at 0.5 hr / concentration at 2 h / concentration at 1 h / concentration at 6 hr / concentration at 24 h / concentration at 48 h / concentration at 72 h: New Zealand White, rabbit; for concentration at 6 hr / concentration at 24 h / concentration at 48 h / concentration at 72 h: other: intravitreal, 2.5 mg per eye, Group 4 intravitreal 2.5 mg per eye
Method: To measure the concentration of Compound 1 in plasma and ocular tissues following topical ocular, subcutaneous, and intravitreal administration, New Zealand White rabbits were administered Compound 1, and plasma and ocular samples were collected at pre-determined time points. Compound 1 formulations were prepared fresh on each day of dosing.
Ocular tissue samples from both eyes of each animal were collected and weights were recorded. Plasma and ocular tissue sample concentrations of Compound 1 were determined by LC-MS/MS.
New Zealand White rabbits weighing 2.5 to 3.5 kg were used on this study. Rabbits were housed one per cage. Animals were not fasted and only healthy animals with no ocular illness were used. Two rabbits per group were sacrificed at each of four ocular tissue sampling time points for a total of eight rabbits per group.
Animals were anesthetized for ocular (topical) and intravitreal dosing following the 12IA7 IACUC protocol. Each rabbit received a bolus dose of test formulation either via topical ocular administration 3 times daily on Days 1 and 2 (at 0, 6, and 12 hours), and once on Day 3 (at 0 hours) into both eyes; via intravitreal administration into both eyes once on Day 1 (at 0 hours); or via subcutaneous administration 2 times daily on Days 1 and 2 (at 0 and 8 hours) and once daily on Day 3 (at 0 hours). Doses were given within an approximately 1 hour window each day where applicable.
On Day 1, for intravitreal administration, or on Day 3, for topical ocular and subcutaneous administration, at the appropriate ocular tissue collection time points, animals were euthanized and both eyes were enucleated immediately. Following enucleation, each eye was rinsed with phosphate-buffered saline. Ocular tissue samples from both eyes of each animal were collected at predetermined time points and weights were recorded. All the samples were frozen immediately on dry ice, and stored at −60° C. to −80° C. pending bioanalysis.
An LC-MS/MS method was developed for the determination of Compound 1 in rabbit aqueous tissues (plasma, aqueous and vitreous humor) and solid ocular tissue samples. A pre-study standard curve was analyzed to determine the specificity, range, and lower limit of quantitation of the method. Plasma and tissue homogenate study samples were extracted and analyzed. All the samples were treated identically to the standards.
One eight-point standard curve was used in each analytical batch. To be accepted, each batch must have had at least five of eight standards with accuracy within ±20% of nominal, except at the lower limit of quantification (LLOQ), where ±25% was acceptable.
Concentration versus time data is plotted in FIGS. 3-16. All data are expressed as ng/g of the free drug. Samples that were below the limit of quantitation (0.2 ng/mL) were not used in the calculation of averages.

[1] = vitreous humor, read-out: vitreous humor Average Conc.
[2] = vitreous humor, read-out: vitreous humor Conc., individual eyes (OD, OS)

COC(=O)N[C@@H](Cc1ccccc1)C(=O)N[C@@H](Cc1ccc(NS(=O)(=O)O)cc1)c1csc(-c2cccs2)n1 [Compound 1 sodium salt]
concentration at 4 h (aqueous humor, topical, 1.2 mg/eye, Group 1 topical ocular 1.2 mg/eye, 4.0 hr, read-out: aqueous humor Average Conc.): 8.24 ng/g
concentration at 0.5 h (choroid, topical, 1.2 mg/eye, topical ocular 1.2 mg/eye (~0.7 mg/kg/dose), read-out: Choroid tissue Average): 57.7 ng/g
concentration at 1 hr (choroid, topical, 1.2 mg/eye, topical ocular 1.2 mg/eye (~0.7 mg/kg/dose), 1 hr, read-out: Choroid tissue Average): 32.2 ng/g
concentration at 2 hr (choroid, topical, 1.2 mg/eye, topical ocular 1.2 mg/eye (~0.7 mg/kg/dose), 2 hr, read-out: Choroid tissue Average): 59.2 ng/g
concentration at 4 hr (choroid, topical, 1.2 mg/eye, topical ocular 1.2 mg/eye (~0.7 mg/kg/dose), 4 hr, read-out: Choroid tissue Average): 165 ng/g
concentration at 0.5 hr (cornea, topical, 1.2 mg/eye, topical ocular 1.2 mg/eye (~0.7 mg/kg/dose), read-out: Cornea tissue Average): 1020 ng/g
concentration at 0.5 hr (cornea, topical, 1.2 mg/eye, topical ocular 1.2 mg/eye (~0.7 mg/kg/dose), read-out: Cornea tissue Conc., individual eyes (OD, OS)): 427 ng/g
concentration at 1 hr (cornea, topical, 1.2 mg/eye, topical ocular 1.2 mg/eye (~0.7 mg/kg/dose), 1 hr, read-out: Cornea tissue Average): 548 ng/g
concentration at 2 hr (cornea, topical, 1.2 mg/eye, topical ocular 1.2 mg/eye (~0.7 mg/kg/dose), 2 hr, read-out: Cornea tissue Average): 1070 ng/g
concentration at 4 hr (cornea, topical, 1.2 mg/eye, topical ocular 1.2 mg/eye (~0.7 mg/kg/dose), 4 hr, read-out: Cornea tissue Average): 534 ng/g
concentration at 0.5 hr (iris homogenate, topical, 1.2 mg/eye, topical ocular 1.2 mg/eye (~0.7 mg/kg/dose), read-out: Iris homogenate Conc., individual eyes (OD, OS)): 2.55 ng/mL
concentration at 0.5 hr (iris, topical, 1.2 mg/eye, topical ocular 1.2 mg/eye (~0.7 mg/kg/dose), read-out: Iris tissue Average): 24.3 ng/g
concentration at 0.5 hr (iris, topical, 1.2 mg/eye, topical ocular 1.2 mg/eye (~0.7 mg/kg/dose), read-out: Iris tissue Conc., individual eyes (OD, OS)): 17.8 ng/g
concentration at 1 hr (iris, topical, 1.2 mg/eye, topical ocular 1.2 mg/eye (~0.7 mg/kg/dose), 1 hr, read-out: Iris tissue Average): 55.2 ng/g
concentration at 2 h (iris, topical, 1.2 mg/eye, topical ocular 1.2 mg/eye (~0.7 mg/kg/dose), 2 hr, read-out: Iris tissue Average): 51.9 ng/g
concentration at 4 h (iris, topical, 1.2 mg/eye, topical ocular 1.2 mg/eye (~0.7 mg/kg/dose), 4 hr, read-out: Iris tissue Average): 261 ng/g
concentration at 4 h (iris, topical, 1.2 mg/eye, topical ocular 1.2 mg/eye (~0.7 mg/kg/dose), 4 hr, read-out: Iris tissue Conc., individual eyes (OD, OS)): 30.7 ng/g
concentration at 0.5 h (retina, topical, 1.2 mg/eye, topical ocular 1.2 mg/eye (~0.7 mg/kg/dose), read-out: Retina tissue Average): 25.6 ng/g
concentration at 1 h (retina, topical, 1.2 mg/eye, topical ocular 1.2 mg/eye (~0.7 mg/kg/dose), 1 hr, read-out: Retina tissue Average): 59.2 ng/g
concentration at 2 h (retina, topical, 1.2 mg/eye, topical ocular 1.2 mg/eye (~0.7 mg/kg/dose), 2 hr, read-out: Retina tissue Average): 48.3 ng/g
concentration at 4 h (retina, topical, 1.2 mg/eye, topical ocular 1.2 mg/eye (~0.7 mg/kg/dose), 4 hr, read-out: Retina tissue Average): 405 ng/g
concentration at 6 hr [1]: 988000 ng/g
concentration at 6 hr [2]: 592000 ng/mL
concentration at 24 h [1]: 350000 ng/g
concentration at 24 h [2]: 438000 ng/mL
concentration at 48 h [1]: 82000 ng/g
concentration at 48 h [2]: 85200 ng/mL
concentration at 72 h [1]: 13400 ng/g
concentration at 72 h [2]: 14500 ng/mL
concentration at 0.5 hr (vitreous humor, subcutaneous, 5 mg/kg, Group 2 subcutaneous 5 mg/kg, read-out: vitreous humor Average Conc.): 0.83 ng/g
concentration at 0.5 hr (vitreous humor, subcutaneous, 5 mg/kg, Group 2 subcutaneous 5 mg/kg, read-out: vitreous humor Conc., individual eyes (OD, OS)): 0.77 ng/mL
concentration at 1 hr (vitreous humor, subcutaneous, 5 mg/kg, Group 2 subcutaneous 5 mg/kg, 1.0 hr, read-out: vitreous humor Average Conc.): 0.45 ng/g
concentration at 0.5 h (vitreous humor, topical, 1.2 mg/eye, Group 1 topical ocular 1.2 mg/eye, read-out: vitreous humor Average Conc.): 0.61 ng/g
concentration at 0.5 h (vitreous humor, topical, 1.2 mg/eye, Group 1 topical ocular 1.2 mg/eye, read-out: vitreous humor Conc., individual eyes (OD, OS)): 0.528 ng/mL
concentration at 1 h (vitreous humor, topical, 1.2 mg/eye, Group 1 topical ocular 1.2 mg/eye, 1.0 hr, read-out: vitreous humor Average Conc.): 2.09 ng/g
concentration at 2 hr (vitreous humor, topical, 1.2 mg/eye, Group 1 topical ocular 1.2 mg/eye, 2.0 hr, read-out: vitreous humor Average Conc.): 3.33 ng/g
concentration at 2 hr (vitreous humor, topical, 1.2 mg/eye, Group 1 topical ocular 1.2 mg/eye, 2.0 hr, read-out: vitreous humor Conc., individual eyes (OD, OS)): 1.14 ng/mL
concentration at 4 hr (vitreous humor, topical, 1.2 mg/eye, Group 1 topical ocular 1.2 mg/eye, 4.0 hr, read-out: vitreous humor Average Conc.): 4.01 ng/g
aqueous humor concentrations (topical ocular administration, over four hours (FIG. 6)): below 50 ng/g

Source: US11666558B2, “Methods of treating intraocular pressure with activators of Tie-2” (EyePoint Pharmaceuticals, Inc., priority 2015, dated 2023)
